# According to patent US20200029601A1, “PHENYLACRYLIC ACID SOLUTION FOR BROAD SPECTRUM ANTIMICROBIAL APPLICATIONS FOR FOODSTUFFS” (KLF LABS LLC, priority 2018, published 2020):
# Like-named read-outs stand apart in the source and are kept apart here.
# Legend:
# Saccharomyces cerevisiae [1] = test: Yeast growth in sterile model beverage (Experimental Test 5); format: cell-based; settings: 300 ppm; model beverage at 4° C.; 72 hours
# Description: Application experiments were set up using a model beverage. The formulations were tested against Saccharomyces cerevisiae, a yeast well recognized for its beverage spoiling quality. A sterile model beverage was prepared using the formulation indicated in Table 19, with an initial inoculation quantity of 10^4 cells/mL of beverage. […] The OD 660 of each sample was measured 72 hours after initial inoculation using an 8543 Spectrophotometer and the data was compiled using excel, as depicted in Table 20.
# Candida parapsilosis = test: microbe, parasite or virus in culture; settings: Lodderomyces parapsilosis, 48 h
# Description: (§1) The media was then sterilized by steam autoclaving the solution for 15 minutes at 121° C. and the media was placed into 3 96 cell plates and pH using either 0.1N HCl or 0.1N NaOH to pH values of 3.1, 5.6, 6.0, 6.5, 7.0, and 7.5.
# (§2) Three exemplary embodiment solutions were added and serial diluted into a series of treatment wells and 0.5 McFarland Standard's worth of yeast cells were added to each well. The plates were incubated at 32° C. for 48 hours and then the OD was read at 600 nm. The percent inhibition was graphed as a percentage of the following formula indicated in Equation 1.
# Saccharomyces cerevisiae [2] = test: microbe, parasite or virus in culture; settings: 48 h
# Description: as §1, §2
# Zygosaccharomyces bailii = test: microbe, parasite or virus in culture; settings: 48 h
# Description: as §1, §2
# Zygosaccharomyces rouxii = test: microbe, parasite or virus in culture; settings: 48 h
# Description: as §1, §2
# Escherichia coli = settings: 500 ppm; pH 4.5; 24 hours growth, then plated
# Description: (§3) In conducting tests with the model organisms, agar medium for 1 L plates were first prepared having the composition indicated in Table 16.
# (§4) In connection with this particular experiment, the pH of the samples was adjusted to a pH value of 4.5 by adding a small amount of 0.1 M HCl. The samples were then sterilized with steam at 121° C. for about 15 minutes. The formulations were allowed to cool to 70° F., after which a sample of 10^6 cells of an aforementioned microorganism, as measured using the optical density of the cells, was applied to 1 mL of the individual solutions. Afterwards, samples were allowed to grow for 24 hours. The solutions were diluted one hundred-fold and 10 microliters were applied to a LB media plate and outgrown for 24 additional hours.
# [3] = test system: Lactobacillus acidophilus; settings: 500 ppm; pH 4.5; 24 hours growth, then plated
# Description: as §3, §4
# Saccharomyces cerevisiae [4] = settings: 1000 ppm (positive control); pH 4.0; 72 hours
# Description: Each of the formulations presented above was added to each of the three 20 mL samples of the agar medium.
# In connection with this particular experiment, the pH of the samples was adjusted to a pH value of 4.0 by adding a small amount of 0.1 M HCl. The samples were then sterilized with steam at 121° C. for 15 minutes. In one embodiment, 1 mL sample formulations were poured into a 1.5 mL sterile microcentrifuge tube and inoculated with ˜10,000 Saccharomyces cerevisiae cells (e.g., yeast cells). The cells were allowed to grow outwards for 72 hours and then the endpoint concentration of cell growth was determined spectrophotometrically at 660 nm. In samples where cell growth was generally absent cell samples were diluted and counted on a yeast extract peptone dextrose plate. Controls to account for the presence of binder in the absorbance reading were subtracted out in the reporting of the final absorbance. The negative control was diluted twenty times prior to reading the Abs 660 nm.
# [5] = pH 3.1, read-out: Percent inhibition
# [6] = pH 5.6, read-out: Percent inhibition
# [7] = pH 6, read-out: Percent inhibition
# [8] = pH 6.5, read-out: Percent inhibition
# [9] = pH 7, read-out: Percent inhibition
# [10] = pH 7.5, read-out: Percent inhibition
structure (smiles),measurement,setting,value
"O=C(O)C=Cc1ccccc1 [Phenylacrylic Acid, 3-phenyl-2-propenoic acid]",OD 660 nm,Saccharomyces cerevisiae [1],0.51
C/C=C/C=C/C(=O)[O-].[K+] [Potassium Sorbate],inhibition at 130 ppm,Candida parapsilosis; [5],0.9%
same,inhibition at 250 ppm,Candida parapsilosis; [5],5.2%
same,inhibition at 500 ppm,Candida parapsilosis; [5],16.2%
same,inhibition at 1000 ppm,Candida parapsilosis; [5],13.5%
same,inhibition at 2000 ppm,Candida parapsilosis; [5],6.5%
same,inhibition at 130 ppm,Candida parapsilosis; [6],9.5%
same,inhibition at 250 ppm,Candida parapsilosis; [6],12.3%
same,inhibition at 500 ppm,Candida parapsilosis; [6],28.7%
same,inhibition at 1000 ppm,Candida parapsilosis; [6],32.8%
same,inhibition at 2000 ppm,Candida parapsilosis; [6],42.4%
same,inhibition at 130 ppm,Candida parapsilosis; [7],5%
same,inhibition at 250 ppm,Candida parapsilosis; [7],12.8%
same,inhibition at 500 ppm,Candida parapsilosis; [7],7.6%
same,inhibition at 1000 ppm,Candida parapsilosis; [7],4.6%
same,inhibition at 2000 ppm,Candida parapsilosis; [7],2.8%
same,inhibition at 130 ppm,Candida parapsilosis; [8],3.3%
same,inhibition at 250 ppm,Candida parapsilosis; [8],1.1%
same,inhibition at 500 ppm,Candida parapsilosis; [8],0%
same,inhibition at 1000 ppm,Candida parapsilosis; [8],0%
same,inhibition at 2000 ppm,Candida parapsilosis; [8],0.8%
same,inhibition at 130 ppm,Candida parapsilosis; [9],1.7%
same,inhibition at 250 ppm,Candida parapsilosis; [9],8.8%
same,inhibition at 500 ppm,Candida parapsilosis; [9],15.9%
same,inhibition at 1000 ppm,Candida parapsilosis; [9],8.3%
same,inhibition at 2000 ppm,Candida parapsilosis; [9],8.4%
same,inhibition at 130 ppm,Candida parapsilosis; [10],6.2%
same,inhibition at 250 ppm,Candida parapsilosis; [10],0%
same,inhibition at 500 ppm,Candida parapsilosis; [10],0%
same,inhibition at 1000 ppm,Candida parapsilosis; [10],0%
same,inhibition at 2000 ppm,Candida parapsilosis; [10],7.4%
same,inhibition at 130 ppm,Saccharomyces cerevisiae [2]; [5],99.6%
same,inhibition at 250 ppm,Saccharomyces cerevisiae [2]; [5],99.4%
same,inhibition at 500 ppm,Saccharomyces cerevisiae [2]; [5],99.7%
same,inhibition at 1000 ppm,Saccharomyces cerevisiae [2]; [5],99.8%
same,inhibition at 2000 ppm,Saccharomyces cerevisiae [2]; [5],99.3%
same,inhibition at 130 ppm,Saccharomyces cerevisiae [2]; [6],84.9%
same,inhibition at 250 ppm,Saccharomyces cerevisiae [2]; [6],95.3%
same,inhibition at 500 ppm,Saccharomyces cerevisiae [2]; [6],98.1%
same,inhibition at 1000 ppm,Saccharomyces cerevisiae [2]; [6],99%
same,inhibition at 2000 ppm,Saccharomyces cerevisiae [2]; [6],99.4%
same,inhibition at 130 ppm,Saccharomyces cerevisiae [2]; [7],9.9%
same,inhibition at 250 ppm,Saccharomyces cerevisiae [2]; [7],25%
same,inhibition at 500 ppm,Saccharomyces cerevisiae [2]; [7],50.3%
same,inhibition at 1000 ppm,Saccharomyces cerevisiae [2]; [7],62%
same,inhibition at 2000 ppm,Saccharomyces cerevisiae [2]; [7],76.2%
same,inhibition at 130 ppm,Saccharomyces cerevisiae [2]; [8],17.7%
same,inhibition at 250 ppm,Saccharomyces cerevisiae [2]; [8],28.2%
same,inhibition at 500 ppm,Saccharomyces cerevisiae [2]; [8],48.1%
same,inhibition at 1000 ppm,Saccharomyces cerevisiae [2]; [8],60.6%
same,inhibition at 2000 ppm,Saccharomyces cerevisiae [2]; [8],84.6%
same,inhibition at 130 ppm,Saccharomyces cerevisiae [2]; [9],22%
same,inhibition at 250 ppm,Saccharomyces cerevisiae [2]; [9],37.9%
same,inhibition at 500 ppm,Saccharomyces cerevisiae [2]; [9],53.2%
same,inhibition at 1000 ppm,Saccharomyces cerevisiae [2]; [9],69%
same,inhibition at 2000 ppm,Saccharomyces cerevisiae [2]; [9],84.9%
same,inhibition at 130 ppm,Saccharomyces cerevisiae [2]; [10],19.4%
same,inhibition at 250 ppm,Saccharomyces cerevisiae [2]; [10],44.9%
same,inhibition at 500 ppm,Saccharomyces cerevisiae [2]; [10],55.8%
same,inhibition at 1000 ppm,Saccharomyces cerevisiae [2]; [10],73.6%
same,inhibition at 2000 ppm,Saccharomyces cerevisiae [2]; [10],72.1%
same,inhibition at 130 ppm,Zygosaccharomyces bailii; [5],91.9%
same,inhibition at 250 ppm,Zygosaccharomyces bailii; [5],96.5%
same,inhibition at 500 ppm,Zygosaccharomyces bailii; [5],99.1%
same,inhibition at 1000 ppm,Zygosaccharomyces bailii; [5],99.7%
same,inhibition at 2000 ppm,Zygosaccharomyces bailii; [5],100%
same,inhibition at 130 ppm,Zygosaccharomyces bailii; [6],70.4%
same,inhibition at 250 ppm,Zygosaccharomyces bailii; [6],86.7%
same,inhibition at 500 ppm,Zygosaccharomyces bailii; [6],95.6%
same,inhibition at 1000 ppm,Zygosaccharomyces bailii; [6],99.7%
same,inhibition at 2000 ppm,Zygosaccharomyces bailii; [6],99.8%
same,inhibition at 130 ppm,Zygosaccharomyces bailii; [7],0%
same,inhibition at 250 ppm,Zygosaccharomyces bailii; [7],0%
same,inhibition at 500 ppm,Zygosaccharomyces bailii; [7],0%
same,inhibition at 1000 ppm,Zygosaccharomyces bailii; [7],1.8%
same,inhibition at 2000 ppm,Zygosaccharomyces bailii; [7],3%
same,inhibition at 130 ppm,Zygosaccharomyces bailii; [8],0%
same,inhibition at 250 ppm,Zygosaccharomyces bailii; [8],0%
same,inhibition at 500 ppm,Zygosaccharomyces bailii; [8],0%
same,inhibition at 1000 ppm,Zygosaccharomyces bailii; [8],0%
same,inhibition at 2000 ppm,Zygosaccharomyces bailii; [8],20%
same,inhibition at 130 ppm,Zygosaccharomyces bailii; [9],0%
same,inhibition at 250 ppm,Zygosaccharomyces bailii; [9],0%
same,inhibition at 500 ppm,Zygosaccharomyces bailii; [9],0%
same,inhibition at 1000 ppm,Zygosaccharomyces bailii; [9],0%
same,inhibition at 2000 ppm,Zygosaccharomyces bailii; [9],16%
same,inhibition at 130 ppm,Zygosaccharomyces bailii; [10],9.7%
same,inhibition at 250 ppm,Zygosaccharomyces bailii; [10],0%
same,inhibition at 500 ppm,Zygosaccharomyces bailii; [10],0%
same,inhibition at 1000 ppm,Zygosaccharomyces bailii; [10],0%
same,inhibition at 2000 ppm,Zygosaccharomyces bailii; [10],0.3%
same,inhibition at 130 ppm,Zygosaccharomyces rouxii; [5],39.3%
same,inhibition at 250 ppm,Zygosaccharomyces rouxii; [5],66.7%
same,inhibition at 500 ppm,Zygosaccharomyces rouxii; [5],80.4%
same,inhibition at 1000 ppm,Zygosaccharomyces rouxii; [5],88.6%
same,inhibition at 2000 ppm,Zygosaccharomyces rouxii; [5],84.2%
same,inhibition at 130 ppm,Zygosaccharomyces rouxii; [6],93.7%
same,inhibition at 250 ppm,Zygosaccharomyces rouxii; [6],95.9%
same,inhibition at 500 ppm,Zygosaccharomyces rouxii; [6],37.7%
same,inhibition at 1000 ppm,Zygosaccharomyces rouxii; [6],99.3%
same,inhibition at 2000 ppm,Zygosaccharomyces rouxii; [6],100%
same,inhibition at 130 ppm,Zygosaccharomyces rouxii; [7],0%
same,inhibition at 250 ppm,Zygosaccharomyces rouxii; [7],0%
same,inhibition at 500 ppm,Zygosaccharomyces rouxii; [7],3.4%
same,inhibition at 1000 ppm,Zygosaccharomyces rouxii; [7],17.4%
same,inhibition at 2000 ppm,Zygosaccharomyces rouxii; [7],63.3%
same,inhibition at 130 ppm,Zygosaccharomyces rouxii; [8],19.7%
same,inhibition at 250 ppm,Zygosaccharomyces rouxii; [8],0%
same,inhibition at 500 ppm,Zygosaccharomyces rouxii; [8],6.7%
same,inhibition at 1000 ppm,Zygosaccharomyces rouxii; [8],65.6%
same,inhibition at 2000 ppm,Zygosaccharomyces rouxii; [8],90.6%
same,inhibition at 130 ppm,Zygosaccharomyces rouxii; [9],4.7%
same,inhibition at 250 ppm,Zygosaccharomyces rouxii; [9],9.2%
same,inhibition at 500 ppm,Zygosaccharomyces rouxii; [9],62.7%
same,inhibition at 1000 ppm,Zygosaccharomyces rouxii; [9],86.2%
same,inhibition at 2000 ppm,Zygosaccharomyces rouxii; [9],89.3%
same,inhibition at 130 ppm,Zygosaccharomyces rouxii; [10],7.2%
same,inhibition at 250 ppm,Zygosaccharomyces rouxii; [10],16.5%
same,inhibition at 500 ppm,Zygosaccharomyces rouxii; [10],48.6%
same,inhibition at 1000 ppm,Zygosaccharomyces rouxii; [10],74.9%
same,inhibition at 2000 ppm,Zygosaccharomyces rouxii; [10],95.2%
same,Escherichia coli cell count,Escherichia coli,5.49 Log(CFU/mL)
same,Lactobacillus acidophilus cell count,[3],<2 Log(CFU/mL)
same,Abs 660 nm after 3 days,Saccharomyces cerevisiae [4],0.0396 ± 0.005
same,Cell Count after 3 days,Saccharomyces cerevisiae [4],5.3 × 10^5 CFU/mL
